System: male rats with STZ-induced diabetes
Test: Mixed meal tolerance test (MTT) in male rats with streptozotocin induced diabetes
Assay type: in vivo, rat
Settings: 60 mg/kg oral, mean ± SE
Experimental: The test compound is formulated by adding a vehicle of 1% hydroxyethylcellulose (HEC), 0.25% Tween® 80 w/antifoam 0.05% to preweighed test compound to make a 2.5 mg/ml solution. The mixture is probe sonicated for approximately 30 seconds. The resulting solution is used as a stock solution, from which the lower concentration dose solutions are prepared by dilution with the vehicle. STZ, 45 mg/kg, is formulated by dissolving in 0.1M Citrate buffer in 3 ml aliquots and stored in the dark on ice, when not being administered. A high fat content mixed meal (Bio-Serv® Rodent Diet F3282 High Fat) comprising Fat Calories (60%), Carbohydrate Calories (26%) and Protein Calories (15%) is utilized. Single housed Sprague Dawley rats are allowed to acclimate for a period of 3 to 7 days.
In an effort to ensure that the animals have not recently fed, STZ is administered in the afternoon, approximately six hours into the light cycle (lights on 6 am, lights off 6 pm). The animals are anesthetized with isoflurane and STZ is delivered via tail vein injection. Once animals regain consciousness, they are returned to housing and allowed to recover for 7 days.
On the two days immediately prior to the meal tolerance test (MTT) all rats are given a small amount (2-4 g) of the F3282 diet, so they became acclimated to it prior to receiving it during the experiment. On the evening before the experiment, the rats are moved into clean cages and their food is removed. The following morning animals are weighed and a blood sample is taken by tail snip for glucose measurement (Abbott AlphaTRAK™ glucometers: code 29) Animals are grouped n=6 based on fasted body weight and glucose. Thirty minutes after the test compound is orally administered, two glucose measurements are collected. Then a five gram pellet of Bio-Serv® diet 3282 is given. After 20 minutes remaining food is taken away and weighed. Blood samples are taken at 20, 40, 60 and 120 minutes for glucose measurement.

Compound: C[C@H]1O[C@H](O[C@H]2[C@H](O)[C@@H](O)[C@@H](O[C@H]3[C@H](O)[C@@H](O)C(O)O[C@@H]3CO)O[C@@H]2CO)[C@H](O)[C@@H](O)[C@@H]1N[C@H]1C=C(CO)[C@@H](O)[C@H](O)[C@H]1O (stereo partly drawn) [Acarbose, reference compound]
- Glucose value, 0 min. (30 min after compound, before meal): 124 ± 16.9 mg/dL
- Baseline Adjusted AUC (glucose) (MTT): 23877 ± 4649
- Glucose value, 20 min.: 181 ± 22.8 mg/dL
- Glucose value, 40 min.: 301.3 ± 51.2 mg/dL
- Glucose value, 60 min.: 371.5 ± 63.9 mg/dL
- Glucose value, 120 min.: 433.7 ± 83 mg/dL
